Assay results published in US7816497B2, “Compositions and methods for inhibiting drusen complement components C3a and C5a for the treatment of age-related macular degeneration” (University of Kentucky, priority 2002, dated 2010).

Key:
laser-induced CNV = experiment: Laser-induced CNV in wild-type mice, intravitreous injection of complement blockers; assay type: in vivo; conditions: intravitreous injection immediately after laser injury, compared with control peptide or isotype control antibodies
Procedure: Laser photocoagulation (532 nm, 200 mW, 100 ms, 75 μm) (OcuLight GL, Iridex) was performed (volume studies: 3/eye; protein analyses/flow cytometry: 12/eye) on both eyes of each animal to induce CNV as previously described in Sakurai, E., Taguchi, H., Anand, A., Ambati, B. K., Gragoudas, E. S., Miller, J. W., Adamis, A. P. & Ambati, J. (2003) Invest Ophthalmol Vis Sci 44, 2743-9; and Sakurai, E., Anand, A., Ambati, B. K., van Rooijen, N. & Ambati, J. (2003) Invest Ophthalmol Vis Sci 44, 3578-85. CNV volumes were measured by scanning laser confocal microscope (TCS SP, Leica) as previously reported (Id.) with 0.5% FITC-Griffonia simplicifolia Isolectin B4 (Vector Laboratories) or 0.5% FITC-rat antibody against mouse CD31 (BD Pharmingen). Volumes obtained by lectin and CD31 staining were highly correlated (r^2=0.95). […]
Because the probability of each laser lesion developing CNV is influenced by the group to which it belongs, the mouse, the eye, and the laser spot, the mean lesion volumes were compared using a linear mixed model with a split plot repeated measures design, as previously described. […] Statistical significance was determined at the 0.05 level. […]

human RPE cells = experiment: VEGF secretion by human RPE cells (VEGF ELISA); assay type: cell-based; conditions: 50 ng/ml; confluent and subconfluent conditions; compared to PBS
Procedure: Human RPE cells (gift of David R. Hinton, University of Southern California) were cultured in Dulbecco's modified essential medium (Invitrogen) containing 10% fetal bovine serum, penicillin G (100 U/ml), streptomycin sulfate (0.1 mg/ml) (all from Sigma-Aldrich) at 37° C. under 10% CO2 and 90% room air. Cells were used for experiments upon attaining 80% or 100% confluence.
(§1) The RPE/choroid complex was dissected from the mouse eye and sonicated in lysis buffer (20 mM imidazole HCl, 10 mM KCl, 1 mM MgCl2, 10 mM EGTA, 1% Triton X-100, 10 mM NaF, 1 mM Na molybdate, 1 mM EDTA with protease inhibitor (Sigma-Aldrich)) on ice for 45 sec. VEGF protein levels (pg/ml) in the RPE cell culture supernatant or the RPE/choroid lysate were determined by ELISA (R&D Systems) and normalized to total protein (μg/ml) (Bio-Rad).
(§2) VEGF protein data are represented as the mean±s.e.m. of at least 3 independent experiments and compared using a two-tailed Student's t-test. The null hypothesis was rejected at P<0.05.

VEGF = VEGF levels in mouse eye tissue after intravitreous injection (VEGF ELISA); assay type: in vivo; conditions: wild-type mice, 4 hours after injection, dose-dependent
Procedure: as §1, §2

[1] = test system: macrophages or neutrophils in the choroid; experiment: Leukocyte numbers in the choroid after intravitreous injection (flow cytometry); assay type: in vivo, mice; conditions: 4 hours after intravitreous injection; data not shown
Procedure: Single cell suspensions isolated from mouse RPE/choroids via collagenase D treatment (20 U/mL; Roche Diagnostics) were incubated in Fc block (0.5 mg/mL; BD Pharmingen) for 15 min on ice, stained with Cy5-rat antibody to mouse F4/80 (1:30; Serotec), FITC-hamster antibody to mouse CD11c (1:100; Serotec), or PE-rat antibody to mouse Gr-1 (1:200; eBioscience), and subjected to FACS analysis (FACScalibur, BD Biosciences). Macrophages and neutrophils were defined as F4/80+CD11c- and Gr-1+F4/80-cells, respectively.

## N=C(N)NCCC[C@H](NC(=O)COCC(c1ccccc1)c1ccccc1)C(=O)O [C3aRA, N^2-[(2,2-diphenylethoxy)acetyl]-arginine]
laser-induced CNV
  CNV (volume of laser-induced CNV): reduced

## AcF[OPdChaWR] [C5aRA]
laser-induced CNV
  CNV (volume of laser-induced CNV): reduced

## C3a: activated complement component 3 (human), applied to RPE cells or injected intravitreously
Human RPE cells
  human RPE cell secretion of VEGF: upregulated
VEGF
  VEGF levels in the RPE/choroid: increase
[1]
  number of macrophages or neutrophils in the choroid: no increase

B1: C5a: activated complement component 5 (human), applied to RPE cells or injected intravitreously (protein, UniProt P01031 678-751, looked up)
C5a anaphylatoxin: TLQKKIEEIAAKYKHSVVKKCCYDGACVNNDETCEQRAARISLGPRCIKAFTECCVVASQLRANISHKDMQLGR
modifications: C5a anaphylatoxin
Human RPE cells
  human RPE cell secretion of VEGF: upregulated
VEGF
  VEGF levels in the RPE/choroid: increase
[1]
  number of macrophages or neutrophils in the choroid: no increase
